# Earlier results in patent US20220313663A1, “ELTROMBOPAG DOSING REGIMEN” (NOVARTIS PHARMACEUTICALS CORPORATION, priority 2019, published 2022).
# Settings: subjects with Asian ancestry compared to the non-Asian population
compound,measurement,value
CC1=NN(c2ccc(C)c(C)c2)C(=O)/C1=N\Nc1cccc(-c2cccc(C(=O)O)c2)c1O [eltrombopag],eltrombopag clearance (CL/F),lower
